According to patent publication US8759387B2, “Arylalkylamine compound and process for preparing the same” (Mitsubishi Tanabe Pharma Corporation, priority 2004, dated 2014):
Where a name gives a salt, the structure may show the parent alone.

What was measured:
[1] = molecular target: T1, human CaSR (Homo sapiens, UniProt P41180); test: CaSR activating effect, in vitro test using CaSR expressing cells (intracellular calcium, Fura-2/FDSS); format: cell-based; conditions: CHO cells stably expressing human CaSR and Gα16; change in intracellular calcium concentration
T1 construct: the full length cDNA encoding CaSR was obtained first as three divisional parts; expressed in transfected cells
T1 sequence (P41180 20-1078): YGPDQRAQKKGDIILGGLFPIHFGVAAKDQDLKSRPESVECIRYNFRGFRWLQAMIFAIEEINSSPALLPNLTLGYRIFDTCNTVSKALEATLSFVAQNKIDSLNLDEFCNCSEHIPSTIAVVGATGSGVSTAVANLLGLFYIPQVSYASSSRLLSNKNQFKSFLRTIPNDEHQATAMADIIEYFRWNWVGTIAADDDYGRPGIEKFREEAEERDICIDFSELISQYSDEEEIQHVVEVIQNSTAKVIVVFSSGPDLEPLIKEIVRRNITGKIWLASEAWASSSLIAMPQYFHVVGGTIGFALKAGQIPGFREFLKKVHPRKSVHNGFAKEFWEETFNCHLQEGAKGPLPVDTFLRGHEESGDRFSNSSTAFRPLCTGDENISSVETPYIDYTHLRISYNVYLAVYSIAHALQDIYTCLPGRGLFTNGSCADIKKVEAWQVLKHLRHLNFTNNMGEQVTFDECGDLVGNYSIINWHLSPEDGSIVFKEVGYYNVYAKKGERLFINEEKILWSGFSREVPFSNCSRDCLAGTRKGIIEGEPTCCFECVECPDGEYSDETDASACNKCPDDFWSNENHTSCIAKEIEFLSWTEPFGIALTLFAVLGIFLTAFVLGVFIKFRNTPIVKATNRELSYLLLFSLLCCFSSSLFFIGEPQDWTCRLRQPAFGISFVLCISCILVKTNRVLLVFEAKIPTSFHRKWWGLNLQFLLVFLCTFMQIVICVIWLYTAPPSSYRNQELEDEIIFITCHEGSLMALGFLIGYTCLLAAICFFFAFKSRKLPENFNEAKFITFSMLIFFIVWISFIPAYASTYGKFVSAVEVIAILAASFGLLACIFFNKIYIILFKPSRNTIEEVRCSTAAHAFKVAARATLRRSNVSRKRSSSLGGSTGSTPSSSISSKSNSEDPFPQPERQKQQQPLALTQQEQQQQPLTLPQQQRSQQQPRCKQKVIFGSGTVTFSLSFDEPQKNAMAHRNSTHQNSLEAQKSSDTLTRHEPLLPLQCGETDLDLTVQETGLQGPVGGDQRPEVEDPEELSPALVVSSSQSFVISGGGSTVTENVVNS
Text: In vitro test using CaSR expressing cells
CaSR is a member of G protein-coupled receptor (GPCR). When CaSR of cells are activated by stimulating with extracellular Ca^2+ ion or an agonist (a compound having CaSR activating effect), etc., phospholipase C(PLC) is activated through G protein (Gq), and an intracellular calcium concentration is increased.
Thus, an activating effect on CaSR was examined by using CaSR expressing cell line and referring to change in an intracellular calcium concentration as an index. Preparation of cell strains and a test using the same are, more specifically, carried out as mentioned in the following (1) and (2).
(1) Acquisition of Human CaSR Expressing Cell Line
cDNA fragment encoding human CaSR was obtained from human kidney derived cDNA library by PCR.
[Primer to be Used for PCR was Designed Based on Known Nucleic Acid Sequence Information on Human CaSR (GenBank/EMBL Accession No. D50855; GenBank/EMBL Accession No. NM000388;
• Aida et al., Biochem. Biophys. Res. Commun., 214:524-529, 1995; • Garrett et al., J. Biol. Chem., 270: 12919-12925, 1995, etc.). Also, the full length cDNA encoding CaSR was obtained first as three divisional parts.]
These cDNA fragments were adequately connected to an expression vector to obtain a plasmid for expressing a functional human CaSR in animal cells.
Also, this human CaSR expression plasmid was transfected to CHO cells with a Qα16 expression plasmid α plasmid which is to express a subunit (α16) of G protein], and selected from a medium containing neomycin (G418) to obtain stable expressing cell line.
The obtained cell line stably expressed CaSR of human and α16 subunit of G protein.
(2) Measurement of Calcium Concentration in Cells
By using the CaSR expressing cell line obtained in the above-mentioned (1), change in an intracellular calcium concentration was measured at the time when the cells were stimulated in the presence or in the absence of a test compound as follows.
First, cells were collected using a cell scraper, suspended in a solution comprising Hepes buffer [10 mM Hepes (7.3), 10 mM glucose, 140 mM NaCl, 5 mM KCl, 2 mM CaCl2, 1 mM MgCl2] to which 0.1% cremophor and 3 μM Fura-2 had been added, and reacted at 37° C. for 1 hour under the conditions wherein a test compound of various concentrations (or conditions not added).
After being washed, the cells suspended in Hepes buffer were seeded to a plate (about 2×10^5 cells per 1 well of 96-well plate), and fluorescent intensity (Ratio of 340/380 nm) was measured using FDSS (Functional Drug Screening Sysytem; Hamamatsu Photonics K. K.) to examine change in intracellular calcium concentrations.
CaSR activating effect was confirmed basing on the value (change in an intracellular calcium concentration) measured in the reaction carried out in the presence of the test compound, a CaSR activating ability was confirmed.
Also, from the measured values (change in an intracellular calcium concentration) of the test compound with various concentrations, a concentration/response curve was drawn to obtain an EC50 value (concentration of agonist giving a half maximal response).

[2] = tested on: rat parathyroid cells; test: Suppressing effect on PTH production, in vitro test using rat parathyroid cells (PTH (1-84) ELISA); format: cell-based; conditions: primary cultured rat parathyroid cells, 1.15 mM Ca, 22 to 24 hours culture
Text: In Vitro Test Using Rat Parathyroid Cells
By using primary cultured cells prepared from the parathyroid in rats, suppressing effect on PTH production was examined according to the following in vitro test.
(1) Preparation and Culture of Rat Parathyroid Cells:
Thirty-six 10-weeks old male CD (SD) IGS rats (Crj series, grade: SPF, CHARLES RIVER LABORATORIES JAPAN, INC.) were euthanasically sacrificed under ether anesthesia, the thyroid gland together with the parathyroid glands were cut out under sterilized conditions, and preserved in ITS-containing DMEM/F-12 medium (low Ca). The parathyroid glands were separated from the obtained material under observation by stereoscopic microscope, and collected in the same medium. Next, the medium was discarded, the parathyroid glands were washed with a phosphate buffer solution (PBS(−)) containing no calcium and magnesium ions, 5 ml of a collagenase solution [PBS(−) containing 1.5 mg/ml of collagenase type IV (Gibco Co., catalogue No. 17104-019)] was added, and digested at 37° C. for 1 hour with shaking. After digestion, the enzyme solution was discarded, the parathyroid glands were quickly minced with a scalpel in a laboratory dish, and were collected in 7 ml of a collagenase solution, and digested again at 37° C. for 90 minutes with shaking.
Cell debris was removed using cell strainer, the residue was removed, and then, the cells were collected. They were washed twice with an ITS-containing DMEM/F-12 medium (low Ca) containing 5% FCS, and suspended in the same medium. The parathyroid cells were suspended at the concentration of about 5×10^4 cells/ml, and were seeded to 96-well plate (200 μl/well), and cultured (pre-culture) at 37° C. for about 24 hours in a CO2 incubator.
The ITS-containing DMEM/F-12 medium (low Ca) to be used mentioned above was prepared as follows. Ca-free DMEM (Dulbecco's modified Eagle's medium) (Gibco Co., catalogue No. 21068-028)(500 ml), F-12 (F-12 nutrient mixture; Gibco Co., catalogue No. 11765-054)(500 ml) and 10 ml of ITS (a mixture containing 5 μg/ml of insulin, 5 μg/ml of transferrin and 5 ng/ml of selenium) (ITS+Premix; BD Biosciences Co., catalogue No. 35435) were mixed. To the mixture was dissolved 3.5745 g of HEPES (NACALAI TESQUE Co., catalogue No. 17547-95), and 10 ml of 200 mM L-glutamine (Gibco Co., catalogue No. 25030-081) and 1 ml of Penicillin-Streptomycin solution (100×Penicillin-Streptomycin, liquid; Gibco Co., catalogue No. 15140-122) were added, and the resulting mixture was sterilized by filtration, and then, used. Ca concentration in the medium is about 0.15 mM.
(2) Test of Suppressing Effect on PTH Production
Rat parathyroid cells were pre-cultured as mentioned in the above (1), then, the medium was changed, and the cells were cultured for 22 to 24 hours in a medium to which a test compound and CaCl2 had been added (96-well plate, 200 μl/well). Various concentrations of the test compound and CaCl2 were added to a serum-free ITS-containing DMEM/F-12 medium (low Ca), and the resulting medium was used. When the test compound is to be added, CaCl2 was added so that the Ca concentration became 1.15 mM. […]
PTH (1-84) in the above-mentioned culture supernatant was measured by the ELISA Method, and determined as a PTH production value. […]
Based on the measured value (PTH production value), of the test compounds, the inhibition rate in PTH production was calculated. […]

Compound | EC50 [1] | IC50 [2]
C[C@@H](N[C@@H]1CCCN(c2ccccn2)C1)c1cccc2ccccc12 [Example 1.077] | 0.42 µM | 5.3 nM
(S)-1-(1H-tetrazol-5-yl)pyrrolidin-3-yl-[(R)-1-(naphthalen-1-yl)ethyl]amine hydrochloride [Example 12.028] | 0.017 µM | 0.47 nM
C[C@@H](N[C@H]1CCN(c2ccc(C(=O)O)cc2)C1)c1cccc2ccccc12 [Example 3.001, 4-[(S)-3-[(R)-1-(naphthalen-1-yl)ethylamino]pyrrolidin-1-yl]benzoic acid hydrochloride] | 0.29 µM | 8 nM

Results, then the compound that gave them:

EC50 [1] | IC50 [2] | Compound
0.018 µM | 0.27 nM | C[C@@H](N[C@H]1CCN(c2ccc(S(=O)(=O)NCCN(C)C)cc2)C1)c1cccc2ccccc12 [Example 12.020]
0.42 µM | < 10 nM | C[C@@H](N[C@H]1CCN(C(=O)Cc2ccccc2C(F)(F)F)C1)c1cccc2ccccc12 [Example 5.023]
